Key:
Solubility in water = assay type: physicochemical
Hygroscopicity = assay type: physicochemical
rats = details: cited from earlier work
fatty acid synthesis = details: biological systems, profused organs and intact mammals; cited from earlier work

For `O=C([O-])C[C@@](O)(C(=O)[O-])[C@H](O)C(=O)[O-].[K+].[K+].[K+]` [pure potassium salt], which “solubility in water (in words)” value (Solubility in water) is on record?
The value was “highly soluble”.

And the hygroscopicity (Hygroscopicity)?
Its hygroscopicity is “high hygroscopicity”.

What does the source list for `O=C(O)CC(O)(C(=O)O)C(O)C(=O)O` (stereo not shown) [hydroxycitric acid]?
body weight (rats): significantly reduce the body weight; lipid accumulation (rats): lower lipid accumulation; inhibition of fatty acid synthesis (fatty acid synthesis): substantially inhibit fatty acid synthesis

For `O=C([O-])C[C@@](O)(C(=O)[O-])[C@H](O)C(=O)[O-].O=C([O-])C[C@@](O)(C(=O)[O-])[C@H](O)C(=O)[O-].[Ca+2].[Ca+2].[Ca+2]` [pure calcium salt], which “solubility in water (in words)” value (Solubility in water) is on record?
Its value is “moderately soluble”.

And the hygroscopicity (Hygroscopicity)?
The hygroscopicity was “minimal hygroscopicity”.

Reference: US7943186B2, “Hydroxycitric acid compositions, pharmaceutical and dietary supplements and food products made therefrom, and methods for their use in reducing body weight” (Interhealth Nutraceuticals, Inc., priority 1997, dated 2011)
